The text below walks through data of publication PMC4110927 (Virology, 2013).

The target of one experiment is soluble HLA-B*0702 (Homo sapiens, UniProt P01889). Kind of experiment: Fluorescence polarization. It is filed as binding.
The next experiment addresses soluble HLA-A*0201 (Homo sapiens, UniProt P04439, D140Y/D185E/D98H/E176V/E277Q/G131W/G231S/I119V/I121R/I166T/I218V/L300P/L318F/N151K/N90K/P208A/P217A/Q86G/Q94H/R138H/R169H/T345S). Briefly: Fluorescence polarization. It is filed as binding. On the technique in general: Fluorescence polarisation rises when a labelled molecule tumbles more slowly, as on binding a larger partner.

The test system of experiment [1] is autologous PBMC of subject 8. Kind of experiment: Memory. It is filed as cell-based, human.
Experiment [2] addresses soluble HLA A*0201 or B*0702 (allele not stated for the peptide family). Kind of experiment: fluorescence polarisation.
[3] abbreviates: over the course of infection, time points as worded.

“And” between values parts separate entries of the source, which are not always exact repeats. Equal entries are not always repeated. Where a SMILES comes first, the peptide text is derived from it. Where no end group is shown, it is not given here.

The IC50 is the midpoint of a concentration-inhibition curve. Read a high IC50 as weaker potency. On to IPGPGRHPL, for which, on soluble HLA-B*0702, the IC50 was 3.24 µM. In other words, the single-digit micromolar range.

At soluble HLA-B*0702, `CC(C)C[C@H](NC(=O)[C@@H](NC(=O)[C@H](CCCNC(=N)N)NC(=O)[C@@H]1CCCN1C(=O)[C@@H](N)CO)[C@@H](C)O)C(=O)N[C@@H](CC(N)=O)C(=O)N[C@@H](C)C(=O)N[C@@H](Cc1c[nH]c2ccccc12)C(=O)N[C@H](C(=O)O)C(C)C` showed an IC50 of 15.1 µM.

With RPNNNTRKSL, the IC50 on soluble HLA-B*0702 is 4.9 µM.

With SLFNTVATP, the 50% inhibitory concentration (IC50) on soluble HLA-A*0201 was 174 µM.

With `CSCC[C@H](NC(=O)[C@@H]1CCCN1)C(=O)N[C@@H](CS)C(=O)N[C@@H](Cc1ccccc1)C(=O)NCC(=O)N[C@@H](Cc1c[nH]c2ccccc12)C(=O)N[C@@H](CS)C(=O)N[C@@H](Cc1ccccc1)C(=O)N[C@@H](CCCCN)C(=O)N[C@@H](CC(C)C)C(=O)O` (H-PMCFGWCFKL-OH; N-terminus and C-terminus assumed), the results for the “memory T cell response (IFN-γ ELISPOT), in words” value in experiment [1] (early cART / following cART (8.3–10.1 yr)), in experiment [1] (late cART (>12.4 yr)) and in experiment [1] (setting [3]) were “recovered during therapy”, “eventual loss” and “no-to-low memory responses”, respectively.

As to Gag p24 143-151 […] (peptide), in experiment [2], the logIC50 is 4.34 and 3.92.

The compound `CC(C)C[C@H](NC(=O)[C@@H]1CCCN1C(=O)[C@@H](NC(=O)[C@H](CCC(N)=O)NC(=O)[C@@H]1CCCN1C(=O)[C@H](CCCNC(=N)N)NC(=O)[C@@H](NC(=O)[C@@H]1CCCN1C(=O)[C@@H](N)Cc1ccccc1)C(C)C)C(C)C)C(=O)O` had an IC50 at soluble HLA-B*0702 of 6.76 µM.

Env gp160/120 341-349 […] (peptide) showed a logIC50 in experiment [2] of 4.36.

The compound FPIRPQVPL had an IC50 at soluble HLA-B*0702 of 4.17 µM.

Take TSGPGTRFPL: inhibition against soluble HLA-B*0702 was half-maximal at 70.8 µM (IC50). This IC50 is about 17-fold higher than that of the compound before.

With SLFNTVAAL [SLFNTVAAL], at soluble HLA-A*0201, half-maximal inhibition (IC50) was put at 6.92 µM. This counts as single-digit micromolar.

Regarding PVTFGWCFKL, at soluble HLA-A*0201, it took 3020 µM to reach half-maximal inhibition (IC50).

In the case of `CC(C)C[C@H](NC(=O)[C@H](CCCCN)NC(=O)[C@H](Cc1ccccc1)NC(=O)[C@H](CS)NC(=O)[C@H](Cc1c[nH]c2ccccc12)NC(=O)CNC(=O)[C@H](Cc1ccccc1)NC(=O)[C@H](CS)NC(=O)[C@H](CC(C)C)NC(=O)[C@@H]1CCCN1)C(=O)O` (H-PLCFGWCFKL-OH; N-terminus and C-terminus assumed), in experiment [1] (setting [3]), the “memory T cell response (IFN-γ ELISPOT), in words” value is recorded as “no-to-low memory responses”.

On soluble HLA-B*0702, TKGPGIRFPL gave a half-inhibitory concentration (IC50) of 257 µM.

Take RPNNNTRKSI: on soluble HLA-B*0702, the IC50 is 3.63 µM. Compared with the last compound, the IC50 is about 71-fold lower.

Take RPMTWKGAL [RPMTWKGAL]: the half-inhibitory concentration (IC50) against soluble HLA-B*0702 is 7.08 µM.

SPRTLDAWV: the 50% inhibitory concentration (IC50) at soluble HLA-B*0702 was 24 µM.

For the compound RSNNNTRKSI, the half-inhibitory concentration (IC50) at soluble HLA-B*0702 is 21.4 µM. The IC50 values of the last two compounds are within 1.5-fold of each other.

ALNAWVKVV had a half-maximal inhibitory concentration (IC50) at soluble HLA-A*0201 of 8.51 µM. This counts as single-digit micromolar.

The compound RPTNNTRKSI had a 50% inhibitory concentration (IC50) on soluble HLA-B*0702 of 5.62 µM.

TPGPGTRYPL had a concentration for half-maximal inhibition (IC50) against soluble HLA-B*0702 of 3.72 µM.

As for `CC[C@H](C)[C@H](NC(=O)CNC(=O)[C@@H]1CCCN1C(=O)CNC(=O)[C@@H]1CCCN1C(=O)[C@@H](N)[C@@H](C)O)C(=O)N[C@@H](CCCNC(=N)N)C(=O)N[C@@H](Cc1ccccc1)C(=O)N1CCC[C@H]1C(=O)N[C@@H](CC(C)C)C(=O)O`, it took 2.51 µM to reach half-maximal inhibition against soluble HLA-B*0702 (IC50).

Turning to RPNNSTRKSI, the 50% inhibitory concentration (IC50) against soluble HLA-B*0702 was 7.41 µM.

Take RPNNNTRRSI: the 50% inhibitory concentration (IC50) on soluble HLA-B*0702 was 9.77 µM.

At soluble HLA-B*0702, FPARPQVPL gave an IC50 of 4.57 µM. This IC50 lies about 2.1-fold lower than the previous one.

The compound PLNAWVKVV gave a half-maximal inhibitory concentration (IC50) at soluble HLA-A*0201 of 64.6 µM.

TLSAWVKVV: 15.1 µM corresponded to half-maximal inhibition on soluble HLA-A*0201 (IC50).

TPGPGPRYPL had a half-maximal inhibitory concentration (IC50) at soluble HLA-B*0702 of 5.89 µM.

`CC(C)C[C@H](NC(=O)[C@@H]1CCCN1C(=O)[C@H](Cc1ccccc1)NC(=O)[C@H](CCCNC(=N)N)NC(=O)[C@@H]1CCCN1C(=O)CNC(=O)[C@@H]1CCCN1C(=O)CNC(=O)[C@@H]1CCCN1C(=O)[C@@H](N)[C@@H](C)O)C(=O)O`: on soluble HLA-B*0702, the IC50 is 4.57 µM. This IC50 and that of the compound before are within 1.5-fold of each other.

As to SPRPLNAWV, the IC50 against soluble HLA-B*0702 was 15.1 µM.

`CC(C)C[C@H](NC(=O)[C@@H]1CCCN1C(=O)[C@H](Cc1ccccc1)NC(=O)[C@H](CCCNC(=N)N)NC(=O)[C@@H](NC(=O)CNC(=O)[C@@H]1CCCN1C(=O)CNC(=O)[C@@H]1CCCN1C(=O)[C@@H](N)[C@@H](C)O)[C@@H](C)O)C(=O)O` showed a 50% inhibitory concentration (IC50) against soluble HLA-B*0702 of 2.88 µM.

On to RPMTRKAAL [RPMTRKAAL], for which the IC50 against soluble HLA-B*0702 was 6.61 µM.

The compound SLFNTVATL had a half-maximal inhibitory concentration (IC50) against soluble HLA-A*0201 of 6.46 µM.

As for `CC[C@H](C)[C@H](NC(=O)CNC(=O)[C@@H]1CCCN1C(=O)CNC(=O)[C@@H]1CCCN1C(=O)[C@@H](N)[C@@H](C)O)C(=O)N[C@@H](CCCNC(=N)N)C(=O)N[C@@H](Cc1ccc(O)cc1)C(=O)N1CCC[C@H]1C(=O)N[C@H](C(=O)O)C(C)C`, it took 5.5 µM to reach half-maximal inhibition at soluble HLA-B*0702 (IC50).

On to TPGPGPRYPM, for which the concentration for half-maximal inhibition (IC50) at soluble HLA-B*0702 was 3.72 µM.

Turning to TPGPGIRYPM, at soluble HLA-B*0702, the half-inhibitory concentration (IC50) is 3.16 µM. The IC50 values of the last two compounds are within 1.5-fold of each other.

IGSGRAFYAT gave an IC50 against soluble HLA-A*0201 of 3630 µM.

Take RPNNDTRKSI: at soluble HLA-B*0702, half-maximal inhibition (IC50) was put at 7.08 µM.

RPSNNTRKRI: on soluble HLA-B*0702, the IC50 was 14.8 µM. Against the preceding compound, the IC50 is about 2.1-fold higher.

TLDAWVKVV gave an IC50 at soluble HLA-A*0201 of 20 µM.

Consider SPRTLSAWV, for which, on soluble HLA-B*0702, the concentration for half-maximal inhibition (IC50) is 1200 µM.

On to TPGPGPRYPV, for which half-maximal inhibition on soluble HLA-B*0702 (IC50) required 6.61 µM. Against the preceding compound, the IC50 is about 180-fold lower.

Consider RPNNNTRKCI, for which 42.7 µM corresponded to half-maximal inhibition at soluble HLA-B*0702 (IC50). This IC50 is about 6.5-fold higher than that of the compound before.

Take IGPGIAFYAT: at soluble HLA-A*0201, half-maximal inhibition (IC50) was put at 813 µM.

For PITFGWCFKL, it took 2240 µM to reach half-maximal inhibition at soluble HLA-A*0201 (IC50).

PLTLGWCFKL showed a half-maximal inhibitory concentration (IC50) against soluble HLA-A*0201 of 1260 µM. Against the preceding compound, the IC50 is about 1.8-fold lower.

RPMTWKAAL [RPMTWKAAL]: at soluble HLA-B*0702, the concentration for half-maximal inhibition (IC50) was 7.24 µM.

On to SPRALNAWV, for which the half-inhibitory concentration (IC50) on soluble HLA-B*0702 was 11.7 µM. Compared with the last compound, the IC50 is about 1.6-fold higher.

With RPMTYKGAL [RPMTYKGAL], at soluble HLA-B*0702, inhibition was half-maximal at 7.76 µM (IC50).

For the compound FSVRPQVPL, the half-maximal inhibitory concentration (IC50) on soluble HLA-B*0702 is 70.8 µM.

RPNNNTRKST showed a half-maximal inhibitory concentration (IC50) on soluble HLA-B*0702 of 11 µM. This IC50 is about 6.4-fold lower than that of the compound before.

Compound RPNNNTGKRI showed an IC50 against soluble HLA-B*0702 of 22.9 µM.

`CC(C)C[C@H](NC(=O)[C@@H](N)[C@@H](C)O)C(=O)N[C@@H](CC(N)=O)C(=O)N[C@@H](C)C(=O)N[C@@H](Cc1c[nH]c2ccccc12)C(=O)N[C@H](C(=O)N[C@@H](CCCCN)C(=O)N[C@H](C(=O)N[C@H](C(=O)O)C(C)C)C(C)C)C(C)C`: the midpoint of inhibition at soluble HLA-A*0201, the IC50, lay at 14.5 µM.

At soluble HLA-B*0702, `CSCC[C@H](NC(=O)[C@@H]1CCCN1C(=O)[C@@H](N)CCCNC(=N)N)C(=O)N[C@H](C(=O)N[C@@H](Cc1ccc(O)cc1)C(=O)N[C@@H](CCCCN)C(=O)N[C@@H](C)C(=O)N[C@@H](C)C(=O)N[C@@H](CC(C)C)C(=O)O)[C@@H](C)O` [RPMTYKAAL] gave an IC50 of 11 µM.

The compound SPVRPQVPL showed a 50% inhibitory concentration (IC50) at soluble HLA-B*0702 of 4.68 µM.

The compound `CC(C)C[C@H](NC(=O)[C@@H]1CCCN1C(=O)[C@H](Cc1ccc(O)cc1)NC(=O)[C@H](CCCNC(=N)N)NC(=O)[C@@H](NC(=O)CNC(=O)[C@@H]1CCCN1C(=O)CNC(=O)[C@@H]1CCCN1C(=O)[C@@H](N)[C@@H](C)O)C(C)C)C(=O)O` gave an IC50 on soluble HLA-B*0702 of 4.37 µM.

Consider RPMTCKGAL [RPMTCKGAL], for which the half-inhibitory concentration (IC50) against soluble HLA-B*0702 was 5.5 µM.

On soluble HLA-B*0702, TPGPGIRYPL showed a 50% inhibitory concentration (IC50) of 6.03 µM.

Take PPRTLNAWV: at soluble HLA-B*0702, the IC50 is 16.6 µM.

As for TPGPGIRFPI, at soluble HLA-B*0702, the 50% inhibitory concentration (IC50) was 5.89 µM.

Compound `CC(C)C[C@H](NC(=O)[C@H](CCCCN)NC(=O)[C@H](Cc1ccccc1)NC(=O)[C@H](CS)NC(=O)[C@H](Cc1c[nH]c2ccccc12)NC(=O)CNC(=O)[C@H](Cc1ccccc1)NC(=O)[C@@H](NC(=O)[C@H](CC(C)C)NC(=O)[C@@H]1CCCN1)[C@@H](C)O)C(=O)O` showed an IC50 against soluble HLA-A*0201 of 3020 µM.

For IGPGRAFYAT, at soluble HLA-A*0201, the concentration for half-maximal inhibition (IC50) was 437 µM.

At soluble HLA-B*0702, RPITYKAAL [RPITYKAAL] had an IC50 of 7.41 µM. This counts as single-digit micromolar.

As for SLFNTIATL, at soluble HLA-A*0201, the half-maximal inhibitory concentration (IC50) was 8.32 µM.

On to `CC[C@H](C)[C@H](NC(=O)[C@H](CCCNC(=N)N)NC(=O)[C@H](CCCCN)NC(=O)[C@H](CCCNC(=N)N)NC(=O)[C@@H](NC(=O)[C@H](CC(N)=O)NC(=O)[C@H](CC(N)=O)NC(=O)[C@H](CC(N)=O)NC(=O)[C@@H]1CCCN1C(=O)[C@@H](N)CCCNC(=N)N)[C@@H](C)O)C(=O)O`, for which, at soluble HLA-B*0702, half-maximal inhibition (IC50) required 20.9 µM.

IGPGRAFYAA showed an IC50 against soluble HLA-A*0201 of 30.2 µM. This counts as double-digit micromolar.
